From patent US8895579B2, “Heterotricyclic AMPA receptor antagonists for treatment of epilepsy, pain, and other neurological disorders and diseases” (Northwestern University, priority 2010, dated 2014)
Read-outs that look alike come from different tables or passages of the source.

Legend:
GluA4 = target: T1, GluA4 (Rattus norvegicus, UniProt P19493); assay: [3H]-AMPA radioligand binding, membranes of HEK293-T/17 cells expressing GluA4; details: 100 μM
T1 construct: expressed in transfected cells; host or cells: HEK293-T/17 (CRL-11268)
T1 sequence (P19493 21-902 isoform P19493-2 limits assumed): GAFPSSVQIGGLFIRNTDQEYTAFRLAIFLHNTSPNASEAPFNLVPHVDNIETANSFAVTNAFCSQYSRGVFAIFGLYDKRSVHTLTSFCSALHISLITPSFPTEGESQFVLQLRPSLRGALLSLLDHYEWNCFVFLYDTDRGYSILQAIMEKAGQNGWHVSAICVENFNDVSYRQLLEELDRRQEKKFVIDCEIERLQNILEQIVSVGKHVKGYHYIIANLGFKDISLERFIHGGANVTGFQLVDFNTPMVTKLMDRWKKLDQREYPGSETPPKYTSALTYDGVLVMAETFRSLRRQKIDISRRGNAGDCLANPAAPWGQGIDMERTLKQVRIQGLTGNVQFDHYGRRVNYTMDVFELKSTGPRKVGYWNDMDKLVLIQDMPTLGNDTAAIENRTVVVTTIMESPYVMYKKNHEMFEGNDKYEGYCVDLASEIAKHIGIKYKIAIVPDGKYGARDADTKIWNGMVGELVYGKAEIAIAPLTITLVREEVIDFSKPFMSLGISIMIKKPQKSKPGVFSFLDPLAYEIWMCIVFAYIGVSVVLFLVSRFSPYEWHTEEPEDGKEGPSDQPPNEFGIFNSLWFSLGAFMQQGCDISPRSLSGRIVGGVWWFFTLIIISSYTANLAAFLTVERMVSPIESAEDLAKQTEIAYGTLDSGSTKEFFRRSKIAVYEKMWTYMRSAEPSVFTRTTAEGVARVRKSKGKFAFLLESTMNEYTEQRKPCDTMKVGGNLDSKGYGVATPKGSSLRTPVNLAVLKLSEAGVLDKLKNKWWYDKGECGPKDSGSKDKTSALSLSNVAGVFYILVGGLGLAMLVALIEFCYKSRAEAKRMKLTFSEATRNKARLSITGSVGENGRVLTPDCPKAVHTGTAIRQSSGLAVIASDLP
Protocol: Radioligand binding. HEK293-T/17 cells were transfected with 5 μg of iGluR cDNA in 100 mm^2 culture dishes. Two days post transfection, the plates were washed twice with ice-cold Dulbecco's phosphate-buffered saline (DPBS) and then incubated with 50 mM Tris (pH 7.4) and 1 mM EDTA for three minutes on ice. Cells were collected and centrifuged for five minutes at 800 g at room temperature. The cell pellet was homogenized in 50 mM Tris (pH 7.4) containing 320 mM sucrose (homogenization buffer, HB) on ice using a glass dounce homogenizer and centrifuged at 4° C. for 10 minutes at 800 g. The supernatant, containing the membrane fragments, was saved and the remaining pellet containing nuclei and unbroken cells was resuspended in HB. This homogenization process was repeated two more times and after collection of the final resulting supernatant, the remaining pellet was discarded. The collected supernatants were centrifuged at 4° C. for 20 minutes at 20000 g and the resulting supernatant was discarded leaving a membrane-containing pellet. The pellets were resuspended in freshly prepared binding buffer containing (in mM) 50 Tris (pH 7.2), 2.5 CaCl2, 10% glycerol and 100 KSCN (for AMPA receptors) or exclusively 50 Tris (pH 7.4) (for kainate receptors). Membrane protein (50-100 μg) was combined with radiolabeled ligand (10 nM [^3H]-KA or 20 nM [^3H]-AMPA for kainate receptor and AMPA receptor binding, respectively), alone or with 100 μM of IKM-159, and then incubated for 1 h at 4° C. Non-specific binding was determined as the amount of radioligand bound in the presence of a saturating concentration of glutamate (1 mM). Total binding was determined as the amount of radioligand bound in the absence of any competing ligands minus the non-specific binding. […] Data were presented as a percentage of the total binding. All experimental conditions were performed in duplicate in each assay and then averaged for each trial.

[1] = target: T2, homomeric GluK2a kainate receptor (Rattus norvegicus, UniProt P42260); assay: Whole-cell patch clamp of recombinant GluK2a receptors in HEK293-T/17 cells; type: cell-based; details: 30 μM; 10 mM glutamate
T2 construct: myc; expressed in transfected cells; host or cells: HEK293-T/17 (CRL-11268)
T2 sequence (P42260 32-908): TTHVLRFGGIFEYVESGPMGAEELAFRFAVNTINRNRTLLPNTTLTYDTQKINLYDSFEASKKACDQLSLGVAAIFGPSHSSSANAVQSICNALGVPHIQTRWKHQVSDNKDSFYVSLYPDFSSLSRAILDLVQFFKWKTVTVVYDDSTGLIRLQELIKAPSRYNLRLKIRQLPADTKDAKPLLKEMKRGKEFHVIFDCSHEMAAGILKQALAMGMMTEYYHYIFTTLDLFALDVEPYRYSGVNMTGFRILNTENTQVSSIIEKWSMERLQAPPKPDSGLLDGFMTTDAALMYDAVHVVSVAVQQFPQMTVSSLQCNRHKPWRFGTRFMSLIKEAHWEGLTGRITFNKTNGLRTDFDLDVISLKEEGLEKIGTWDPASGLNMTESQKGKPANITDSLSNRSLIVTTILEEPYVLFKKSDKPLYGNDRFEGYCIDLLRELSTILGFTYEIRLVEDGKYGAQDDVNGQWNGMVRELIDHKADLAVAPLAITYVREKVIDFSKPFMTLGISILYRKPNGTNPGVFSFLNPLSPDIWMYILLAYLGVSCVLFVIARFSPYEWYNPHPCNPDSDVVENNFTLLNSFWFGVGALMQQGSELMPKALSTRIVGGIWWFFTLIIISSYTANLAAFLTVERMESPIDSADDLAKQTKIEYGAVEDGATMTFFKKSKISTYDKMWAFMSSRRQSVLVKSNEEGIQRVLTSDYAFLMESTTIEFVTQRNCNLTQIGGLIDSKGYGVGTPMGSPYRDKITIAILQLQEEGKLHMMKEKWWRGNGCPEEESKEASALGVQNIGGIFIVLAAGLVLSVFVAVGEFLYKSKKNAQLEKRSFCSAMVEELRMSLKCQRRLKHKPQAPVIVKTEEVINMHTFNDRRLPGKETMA
Protocol: (§1) Cell Culture and Transfection. Human embryonic kidney cells expressing T-antigen, clone 17 (HEK293-T/17) (CRL-11268) were cultured at 37° C. with 5% CO2 in DMEM, including 100 μg/mL penicillin, 100 μg/mL streptomycin, and 10% heat-inactivated fetal bovine serum. Cells were split twice per week. For transfection, HEK293-T/17 cells were plated at 3×10^4 cells/cm^2 for pharmacology experiments and 5×10^3 cells/cm^2 for physiology experiments in fresh medium 24 h prior to transfection. Cells were transfected with AMPA or KA receptor plasmid cDNAs using Mirus Trans-IT transfection reagent (Minus Bio Corporation, Madison, Wis.) at a ratio of 1 μg cDNA: 3 μL Trans-1T reagent and maintained in transfection medium overnight followed by a media change the next day. Transfected cells were maintained in this medium until the experiment was conducted (48-72 h total post transfection).
Electrophysiology. For analysis of recombinant receptors, HEK293-T/17 cells were co-transfected with 0.2 μg of iGluR cDNA and 0.05 μg of eGFP. For heterologous GluA1/GluA2 receptors, the GluA1:GluA2 cDNA ratio was 1:6. Two to three days post-transfection, eGFP-expressing cells were lifted from the cover slip and voltage clamped in whole cell mode. […]

[2] = target: T3, recombinant homomeric GluA4 AMPA receptor (Rattus norvegicus, UniProt P19493); assay: Whole-cell patch clamp of recombinant GluA4 receptors in HEK293-T/17 cells; type: cell-based; details: for inhibition at 30 µM: HEK293T/17, 30 μM
T3 construct: expressed in transfected cells; host or cells: HEK293-T/17 (CRL-11268)
T3 sequence (P19493 21-902 isoform P19493-2 limits assumed): as the sequence (P19493 21-902 isoform P19493-2 limits assumed) above
Protocol: as §1
Electrophysiology. For analysis of recombinant receptors, HEK293-T/17 cells were co-transfected with 0.2 μg of iGluR cDNA and 0.05 μg of eGFP. For heterologous GluA1/GluA2 receptors, the GluA1:GluA2 cDNA ratio was 1:6. Two to three days post-transfection, eGFP-expressing cells were lifted from the cover slip and voltage clamped in whole cell mode. The internal solution contained (in mM) 30 CsF, 110 CsCl, 10 HEPES, 4 NaCl, 5 EGTA and 0.5 CaCl2 (pH 7.3), while the extracellular solution contained (in mM) 140 NaCl, 10 glucose, 10 Cs-HEPES, 3 KCl, 2 CaCl2 and 1 MgCl2 (pH 7.3). Borosilicate patch electrodes were pulled and fire polished to 2-3 MO resistance. Lifted cells were maintained in a laminar stream of extracellular solution from a triple-barreled flow pipe, which was rapidly translated using a piezoceramic bimorph for fast application of glutamate or kainate alone or in combination with various antagonists (the 10-90% rise time of glutamate-evoked currents was ˜1 ms). IKM compounds were applied for three minutes with analysis performed on the final one minute of drug application.
Statistical analysis. At least three separate experiments were performed for each assay. For data involving three or more groups, a one-way analysis of variance (ANOVA) was performed with a Tukey-Kramer post hoc test for comparison amongst the groups. For data involving two groups, an unpaired student's t-test was performed; if the standard deviations between the two groups were statistically significant, a Welsh correction was added. If the data involving three or more groups or data involving two groups where multiple treatments were performed on the same sample, a repeated measures ANOVA and paired t-test were used, respectively, for analysis of significance. Dose-inhibition response curves were fitted, with the maximum value constrained to 100 and the minimum value constrained to values greater than or equal to zero, using the following equation in order to calculate the IC50 values: Response=minimum+(maximum−minimum)/(1+(IC50^hill slope/dose^hillslope)) All calculations for statistical analysis were carried out with Graphpad Prism4 software (La Jolla, Calif.). Data are presented as mean±S.E.M. with statistical significance set at p<0.05.

GluA2 = target: T4, GluA2 (Rattus norvegicus, UniProt P19491); assay: [3H]-AMPA radioligand binding, membranes of HEK293-T/17 cells expressing GluA2; details: 100 μM; 20 nM [3H]-AMPA; 1 h at 4° C.
T4 construct: expressed in transfected cells; host or cells: HEK293-T/17 (CRL-11268), membranes
T4 sequence (P19491 22-883 isoform P19491-2 limits assumed): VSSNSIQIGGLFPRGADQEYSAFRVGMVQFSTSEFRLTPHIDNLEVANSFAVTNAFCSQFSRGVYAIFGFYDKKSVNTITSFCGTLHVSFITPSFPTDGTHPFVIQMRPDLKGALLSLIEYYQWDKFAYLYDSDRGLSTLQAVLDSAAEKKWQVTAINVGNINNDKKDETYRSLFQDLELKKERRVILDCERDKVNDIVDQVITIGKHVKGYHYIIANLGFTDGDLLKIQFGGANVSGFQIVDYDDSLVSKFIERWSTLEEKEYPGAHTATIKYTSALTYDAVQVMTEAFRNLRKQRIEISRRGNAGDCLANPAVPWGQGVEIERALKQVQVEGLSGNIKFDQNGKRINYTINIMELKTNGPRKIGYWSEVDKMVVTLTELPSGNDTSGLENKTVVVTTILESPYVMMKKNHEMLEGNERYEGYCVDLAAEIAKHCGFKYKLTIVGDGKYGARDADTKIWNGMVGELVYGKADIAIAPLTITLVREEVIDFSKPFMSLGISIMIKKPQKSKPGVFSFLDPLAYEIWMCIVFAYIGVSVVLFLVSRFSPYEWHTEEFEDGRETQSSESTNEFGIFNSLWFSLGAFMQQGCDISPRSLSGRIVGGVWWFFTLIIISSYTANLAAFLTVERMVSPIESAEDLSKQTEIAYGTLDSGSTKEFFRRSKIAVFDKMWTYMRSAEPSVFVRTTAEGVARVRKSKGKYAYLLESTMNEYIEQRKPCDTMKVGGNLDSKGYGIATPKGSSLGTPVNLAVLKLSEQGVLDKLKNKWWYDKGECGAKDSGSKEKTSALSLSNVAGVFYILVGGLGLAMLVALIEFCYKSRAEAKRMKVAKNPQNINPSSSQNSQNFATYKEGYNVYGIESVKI
Protocol: Radioligand binding. HEK293-T/17 cells were transfected with 5 μg of iGluR cDNA in 100 mm^2 culture dishes. Two days post transfection, the plates were washed twice with ice-cold Dulbecco's phosphate-buffered saline (DPBS) and then incubated with 50 mM Tris (pH 7.4) and 1 mM EDTA for three minutes on ice. Cells were collected and centrifuged for five minutes at 800 g at room temperature. The cell pellet was homogenized in 50 mM Tris (pH 7.4) containing 320 mM sucrose (homogenization buffer, HB) on ice using a glass dounce homogenizer and centrifuged at 4° C. for 10 minutes at 800 g. The supernatant, containing the membrane fragments, was saved and the remaining pellet containing nuclei and unbroken cells was resuspended in HB. This homogenization process was repeated two more times and after collection of the final resulting supernatant, the remaining pellet was discarded. The collected supernatants were centrifuged at 4° C. for 20 minutes at 20000 g and the resulting supernatant was discarded leaving a membrane-containing pellet. […] Non-specific binding was determined as the amount of radioligand bound in the presence of a saturating concentration of glutamate (1 mM). Total binding was determined as the amount of radioligand bound in the absence of any competing ligands minus the non-specific binding. […]

Structure (SMILES): O=C(O)C[C@@]12O[C@H]3C=CCN[C@H]3C1CN[C@H]2C(=O)O (stereo partly shown) [IKM-159]
- [3H]AMPA bound as percent of total (specific) binding in absence of competing ligand (GluA4; 20 nM [3H]-AMPA, 1 h at 4° C.): 90±6%
- bound radioligand ([3H]-AMPA) (GluA4; 1 h pre-incubation prior to addition of the radioligand): 100%
- bound radioligand ([3H]-AMPA) (GluA4; 2 h incubation with [3H]-AMPA): 113%
- GluK2a peak amplitude as percent of basal peak glutamate current [1]: 93±2%
- inhibition at 30 µM ([2]; 50 μM KA, read-out: percent inhibition of kainate-evoked steady state GluA4 currents): 37 ± 4%
- inhibition at 30 µM ([2]; 100 μM glutamate, 100 μM cyclothiazide, read-out: percent inhibition of steady-state GluA4 currents): 30 ± 5%
- inhibition at 30 µM ([2]; 500 μM KA, read-out: percent inhibition of kainate-evoked steady state GluA4 currents): 21 ± 2%
- inhibition at 30 µM ([2]; 500 μM glutamate, read-out: percent inhibition of GluA4 non-equilibrium peak currents): 44 ± 8%
- inhibition at 30 µM ([2]; 10 mM glutamate, 100 μM cyclothiazide, read-out: percent inhibition of steady-state GluA4 currents): 7 ± 2%
- inhibition at 30 µM ([2]; 10 mM glutamate, peak current, read-out: reduction from control GluA4 peak glutamate current amplitude (percent inhibition)): 40 ± 4%
- remaining activity at 30 µM ([2]; HEK293T/17, 30 μM, 10 mM glutamate 100 ms, pre-applied at least one minute, read-out: GluA4 peak current as percent of control amplitude): 60 ± 4%
- IC50 ([2]; currents evoked by 10 mM glutamate): 60 ± 8 µM
- [3H]AMPA bound as percent of total (specific) binding in absence of competing ligand (GluA2): 107±5%
